From patent publication US6486199B1, “Spiro and dispiro 1,2,4-trioxolane antimalarials” (Medicines for Malaria Venture MMV International Centre …, priority 2001, dated 2002)
In brackets after ≈: the same amount, converted by molar mass. Like-named read-outs stand apart in the source and are kept apart here.

Tests used:
[1] = tested on: chloroquine-resistant K1 strain of P. falciparum; experiment: in vitro screen against chloroquine-resistant K1 strain of P. falciparum; format: cell-based; conditions: for IC50: Plasmodium falciparum; for in vitro potency: strains not distinguished
[2] = tested on: chloroquine-sensitive NF54 strain of P. falciparum; experiment: in vitro screen against chloroquine-sensitive NF54 strain of P. falciparum; format: cell-based; conditions: for IC50: Plasmodium falciparum
[3] = tested on: ANKA strain of P. Berghei; experiment: single dose STI in vivo screen in infected Moro SPF mice; conditions: for in vivo activity: 10 mg/kg po/sc data of Table 2; for Activity (%) po / Activity (%) sc: percent reduction in parasitemia day 3 post-infection; for antimalarial activity, overall assessment: overall judgement of in vitro and in vivo data of Table 2
Experimental: In the single dose STI in vivo screen, Moro SPF mice infected with the ANKA strain of P. Berghei (groups of three mice) were treated on day one post-infection with trioxolanes dissolved or suspended in 3% ethanol and 7% Tween 80. […] Antimalarial activity was measured by percent redution in parasitemia on day three post-infection and survival times compared to an untreated control group. Survival to day 30 post-infection is considered to be a cure.

[4] = differential scanning calorimetry (DSC), thermal stability; format: physicochemical; conditions: thermal decomposition
[5] = in vitro, K1 strain, read-out: IC50 (ng/ml) K1
[6] = in vitro, NF54 strain, read-out: IC50 (ng/ml) NF54

Row | Structure (SMILES) | IC50 (ng/ml) K1 ([1]; in vitro, K1 strain) | IC50 (ng/ml) NF54 ([2]; in vitro, NF54 strain) | in vivo activity [3] | Tm dec. (° C.) [4] | in vitro potency ([1]; in vitro) | further results
1 | CCOC(=O)CC1CCC2(CC1)OOC1(O2)C2CC3CC(C2)CC1C3 (stereo not shown) [OZ61, Adamantane-2-spiro-3′-8′-ethoxycarbonylmethyl-1′,2′,4′-trioxaspiro[4.5]decane] | 0.52 ng/mL (≈ 0.00148 µM) | 0.53 ng/mL (≈ 0.00151 µM) | modest | 161.7 °C | – | –
2 | c1ccc(C2CCC3(CC2)OOC2(CCC(c4ccccc4)CC2)O3)cc1 (stereo not shown) [OZ62, 3,11-Diphenyl-7,14,15-trioxadispiro[5.1.5.2]pentadecane] | – | – | – | 201.0 °C | – | IC50 [1, 5]: 33 ng/mL (≈ 0.0905 µM); IC50 [2, 6]: 28 ng/mL (≈ 0.0768 µM); Activity (%) po ([3]; single 10 mg/kg po): 0/0%; Activity (%) sc ([3]; single 10 mg/kg sc): 0/0%
3 | Fc1ccc(C2(c3ccc(F)cc3)OOC3(CCC(c4ccccc4)CC3)O2)cc1 (stereo not shown) [OZ66, 3,3-Bis(4-fluorophenyl)-8-phenyl-1,2,4-trioxaspiro[4.5]decane] | – | – | – | 198.5 °C | – | IC50 [1, 5]: 44 ng/mL (≈ 0.108 µM); IC50 [2, 6]: 36 ng/mL (≈ 0.0881 µM); antimalarial activity, overall assessment [3]: completely inactive; Activity (%) po ([3]; single 10 mg/kg po): 0/0%; Activity (%) sc ([3]; single 10 mg/kg sc): 0/0%
4 | CCOC(=O)C1CCC2(CC1)OOC1(O2)C2CC3CC(C2)CC1C3 (stereo not shown) [OZ70, Adamantane-2-spiro-3′-8′-ethoxycarbonyl-1′,2′,4′-trioxaspiro[4.5]decane] | 1.2 ng/mL (≈ 0.00357 µM) | 1.1 ng/mL (≈ 0.00327 µM) | – | 162.8 °C | – | Survival (days) po ([3]; single 10 mg/kg po): 7.7/7.7 days; Survival (days) sc ([3]; single 10 mg/kg sc): 7.7/7.7 days
5 | O=C(O)[C@H]1CC[C@]2(CC1)OOC1(O2)C2CC3CC(C2)CC1C3 (stereo partly drawn) [OZ71, cis-Adamantane-2-spiro-3′-8′-carboxy-1′,2′,4′-trioxaspiro[4.5]decane] | 4.5 ng/mL (≈ 0.0146 µM) | 3.7 ng/mL (≈ 0.012 µM) | – | 165.9 °C | – | –
6 | O=C(O)[C@H]1CC[C@@]2(CC1)OOC1(O2)C2CC3CC(C2)CC1C3 (stereo partly drawn) [OZ72, trans-Adamantane-2-spiro-3′-8′-carboxy-1′,2′,4′-trioxaspiro[4.5]decane] | 15 ng/mL (≈ 0.0486 µM) | 13 ng/mL (≈ 0.0422 µM) | – | 161.9 °C | – | –
7 | O=C(O)CC1CCC2(CC1)OOC1(O2)C2CC3CC(C2)CC1C3 (stereo not shown) [OZ78, Adamantane-2-spiro-3′-8′-carboxymethyl-1′,2′,4′-trioxaspiro[4.5]decane] | >10/>10 ng/ml | >10/>10 ng/ml | promising | 157.5 °C | only weakly active | –
8 | C1CC2(CCN1)OOC1(O2)C2CC3CC(C2)CC1C3.Cl (stereo not shown) [OZ80, Adamantane-2-spiro-3′-1′,2′,4′-trioxa-8′-azaspiro[4.5]decane hydrochloride] | – | – | modest | 129.8 °C | quite potent | IC50 ([1]; K1, read-out: IC50 (ng/ml) K1): < 0.16 ng/mL; IC50 ([2]; NF54, read-out: IC50 (ng/ml) NF54): 0.34 ng/mL
9 | c1ccc(C2(c3ccccn3)OOC3(O2)C2CC4CC(C2)CC3C4)nc1 (stereo not shown) [OZ81, Adamantane-2-spiro-3′-5′,5′-bis(2′-pyridyl)-1′,2′,4′-trioxolane] | >10/>10 ng/ml | >10/>10 ng/ml | – | 150.7 °C | – | antimalarial activity, overall assessment [3]: inactive; Activity (%) po ([3]; single 10 mg/kg po): 0/0%; Activity (%) sc ([3]; single 10 mg/kg sc): 0/0%
10 | c1ccc2c(c1)CCCC21OOC2(O1)C1CC3CC(C1)CC2C3 (stereo not shown) [OZ84, Adamantane-2-spiro-3′-1′,2′,4′-trioxolane-5′-spiro-1″-3″,4″-dihydro-2″H-naphthalene] | – | /1.9 ng/ml | good | 164.5 °C | very active | –
11 | c1ccc2c(c1)CCC1(C2)OOC2(O1)C1CC3CC(C1)CC2C3 (stereo not shown) [OZ85, Adamantane-2-spiro-3′-1′,2′,4′-trioxolane-5′-spiro-2″-3″,4″-dihydro-1″H-naphthalene] | – | /2.0 ng/ml | – | 152.8 °C | very active | –
